Results reported in US20080293679A1, “Use of carotenoids and/or carotenoid derivatives/analogs for reduction/inhibition of certain negative effects of COX inhibitors” (priority 2005, published 2008).
Marks after values point to notes of the source that are not given here.

What was measured:
[1] = system: superoxide anion generation from phorbol-ester (PMA)-stimulated PMNs; test: Direct superoxide anion scavenging by EPR spectroscopy (DEPMPO spin trap), isolated human neutrophil assay; type: cell-based
Method: Leukocyte Isolation and Preparation. Human polymorphonuclear leukocytes (PMNs) were isolated from freshly sampled venous blood of a single volunteer by Percoll density gradient centrifugation as described previously. Briefly, each 10 mL of whole blood was mixed with 0.8 mL of 0.1 M EDTA and 25 mL of saline. The diluted blood was then layered over 9 mL of Percoll at a specific density of 1.080 g/mL. After centrifugation at 400×g for 20 min at 20° C., the plasma, mononuclear cell, and Percoll layers were removed. Erythrocytes were subsequently lysed by addition of 18 mL of ice-cold water for 30 s, followed by 2 mL of 10×PIPES buffer (25 mM PIPES, 110 mM NaCl, and 5 mM KCl, titrated to pH 7.4 with NaOH). Cells were then pelleted at 4° C., the supernatant was decanted, and the procedure was repeated. After the second hypotonic cell lysis, cells were washed twice with PAG buffer [PIPES buffer containing 0.003% human serum albumin (HSA) and 0.1% glucose]. Afterward, PMNs were counted by light microscopy on a hemocytometer. The isolation yielded PMNs with a purity of >95%. The final pellet was then suspended in PAG-CM buffer (PAG buffer with 1 mM CaCl2 and 1 mM MgCl2).
EPR Measurements. All EPR measurements were performed using a Bruker ER 300 EPR spectrometer operating at X-band with a TM110 cavity as previously described. The microwave frequency was measured with a Model 575 microwave counter (EIP Microwave, Inc., San Jose, Calif.). To measure superoxide anion ? generation from phorbol-ester (PMA)-stimulated PMNs, EPR spin-trapping studies were performed using the spin trap DEPMPO (Oxis, Portland, Oreg.) at 10 mM. 1×10^6 PMNs were stimulated with PMA (1 ng/mL) and loaded into capillary tubes for EPR measurements. To determine the radical scavenging ability of 3 and 9 in aqueous and ethanolic formulations, PMNs were pre-incubated for 5 minutes with test compound, followed by PMA stimulation.
Instrument settings used in the spin-trapping experiments were as follows: modulation amplitude, 0.32 G; time constant, 0.16 s; scan time, 60 s; modulation frequency, 100 kHz; microwave power, 20 milliwatts; and microwave frequency, 9.76 GHz. The samples were placed in a quartz EPR flat cell, and spectra were recorded. The component signals in the spectra were identified and quantified as reported previously.

[2] = Lipid peroxide levels in DLPC multilamellar vesicles, C/P 0.2 (triiodide assay); type: biochemical; conditions: for Lipid Peroxide Levels: mean ± S.D.
Method: The levels of lipid peroxide formation were measured photometrically at specific time points. […] Samples were prepared in a glass test tube as described in the table above. […] Sample tubes were vortexed for 3 min to form MLVs. This assay is based on the principle of the oxidative capacity of lipid peroxides to convert […], which can be measured photometrically at […] (El-Saadani et al., 1989). […] Samples were placed in a water bath set at 37° C. Samples remained in the water bath throughout the experiment except for the temporary removal for time point extractions. • 2. […] • 3. After combining sample time point aliquots with CHOD active reagent and the diffraction buffer as described in the table above, test samples were incubated about 6 hours in darkness at ambient temperature. • 4. The absorbance ([…] nm) of the samples was measured using a spectrophotometer. • 5. […] This value was determined by adding known concentrations of I2 to the CHOD reagent. A stoichiometric relationship (slope=1.02) was observed between the amount of organic peroxides assayed and the concentration of I3^- produced.

[3] = Peroxidation study in DLPC multilamellar vesicles, C/P 0.6; type: biochemical; conditions: C/P 0.6, carotenoid 10 μM, 48 hour
Method: 1. Samples were prepared in a glass test tube as described in the table above. This gives a cholesterol/DLPC mole ratio of 0.6 and a final concentration of 10 μM for the carotenoids. Equal volumes of vehicle (20 μl chloroform) were added to control samples. 2. All samples were dried down under a steady stream of nitrogen gas while vortexing. 3. Samples were placed in a vacuum desiccator for 2 hours to remove residual solvent and protected from light. 4. Multi-lamellar vesicles (MLVs) were prepared by the method developed by Bangham and Standish (1965). After samples were removed from the vacuum desiccator, they were immediately resuspended in 1 ml of diffraction buffer warmed to room temperature and vortexed for 3 minutes to form MLVs.
This assay is based on the principle of the oxidative capacity of lipid peroxides to convert I2 to I3^− (triiodide), which can be measured photometrically at 365 nm (el-Saadani et al., 1989). This assay is sensitive to peroxide concentrations as low as 10 μM.
1. Samples were placed in a water bath set at 37° C. throughout the experiment. 2. Aliquots of a sample (20 μl) were extracted at a 48 hour time point as described in the table below.
3. After combining the samples with CHOD active reagent and the diffraction buffer, test samples were incubated for about 6 hours in darkness at ambient temperature. 4. The absorbance of a sample was measured photometrically at 365 nm.
Concentrations of lipid peroxides were calculated by the use of the molar absorptivity of I3^− measured at 365 nm (ε=2.46±0.25×10^4M^−1 cm^−1). This value was determined by adding known concentrations of […] to the CHOD reagent. A stoichiometric relationship (slope=1.02) was observed between the amount of organic peroxides assayed and the concentration of I3^− produced.

[4] = F2-isoprostane formation from DAPC lipid vesicles by GC/NCI-MS; type: biochemical
Method: F2-Isoprostanes are derived principally from the formation of positioned peroxyl radical isomers of arachidonic acid, endocyclization to protaglandin G2-like structures, and reduction to PGF2-like compounds. Total levels of F2-isoprostanes, in DAPC lipid vesicles prepared in the presence of vehicle or drug, were measured by GC-MS with negative chemical ionization as described by Walter et al., 2000. Peroxidation of lipids occurred over time in the absence of any exogenous initiators at 37° C. F2-Isoprostane formation was also measured independently using mass spectroscopy in a blinded study at the Antioxidant Research Laboratory, Tufts University, Boston, Mass.

[5] = Oxygen Radical Absorption Capacity (ORAC) of human plasma; type: biochemical; conditions: 10.0 μM (highest concentration tested); vehicle 28.1±1.2
Method: The comparative effect of COX-2 selective agents on the antioxidant capacity of human plasma was assessed using the Oxygen Radical Absorption Capacity (ORAC) assay. This assay was carried out according to the method of Huang et al., 2002 with fresh plasma using a microplate fluorescence reader in 96 well format with the excitation and emission filters set at 485 and 530 nm respectively.

[6] = cited from earlier work
human LDL = test: MDA formation (TBARS) in isolated human LDL; type: biochemical; conditions: for MDA level in LDL samples: 1 μM, vehicle 3.23±0.28 μM
Method: The effects of the compounds on lipid peroxidation were tested in isolated human LDL. Human venous blood was collected into vacutainer tubes containing K3EDTA after a 12-hour fast. Plasma was immediately separated by centrifugation at 3000 g for 25 minutes. LDL was obtained from plasma by ultracentrifugation using a procedure similar to that reported by Chung et al, 1986 using discontinuous KBr gradient. The purity of the freshly isolated LDL was assessed by SDS-PAGE using the procedure of Laemmli, 1970.
The extent of oxidation was measured for the LDL in the absence and presence of the drugs over a range of concentrations. Malondialdehyde (MDA), a product of lipid oxidation, was measured by the reaction of this aldehyde with thiobarbituric acid in an acid medium to form a stable chromogen, referred to as thiobarbituric-acid-reactive-substances (TBARS). Purified LDL (100 μg protein/ml) was incubated for 30 minutes with either vehicle or an NSAID at various concentrations followed by addition of 50 μM CuSO4 at 37° C. Conjugated diene formation was measured by continuously monitoring the change in absorbance at 234 nm on a Beckman DU 640 spectrophotometer, as described by Esterbauer et al., 1985. Stock solutions were tested for iron contamination, which can contribute independently to lipid peroxidation and assay artifacts.

[7] = 24 Hour, carotenoid 1 μM, control 218 ± 20
[8] = 24 Hour, carotenoid 10 μM, control 218 ± 20
[9] = 48 Hour, carotenoid 1 μM, control 572 ± 76
[10] = 48 Hour, carotenoid 10 μM, control 572 ± 76

Compound | % increase (+) or decrease (−) of lipid peroxide levels compared to control ([2]; 24 Hour, carotenoid 1 μM) | Lipid Peroxide Levels [2, 7] [µM] | % increase (+) or decrease (−) of lipid peroxide levels compared to control ([2]; 24 Hour, carotenoid 10 μM) | Lipid Peroxide Levels [2, 8] [µM] | % increase (+) or decrease (−) of lipid peroxide levels compared to control ([2]; 48 Hour, carotenoid 1 μM) | Lipid Peroxide Levels [2, 9] [µM] | % increase (+) or decrease (−) of lipid peroxide levels compared to control ([2]; 48 Hour, carotenoid 10 μM) | Lipid Peroxide Levels [2, 10] [µM] | other results
3,3′-Diphosphoryloxy-β,ε-carotene sodium salt [Lutein Diphosphate Sodium Salt] |  |  |  |  |  |  |  |  | Mean (% inhibition) of superoxide anion signal ([1]; 40% EtOH, 0.1 mM): 18%; Mean (% inhibition) of superoxide anion signal ([1]; Water, 0.1 mM, listed as disodium diphosphate derivative of natural source lutein, sodium salt): 0%; Mean (% inhibition) of superoxide anion signal ([1]; Water, 0.1 mM, sodium salt): no inhibition; Mean (% inhibition) of superoxide anion signal ([1]; Water, 1.0 mM): 9.3%; Mean (% inhibition) of superoxide anion signal ([1]; Water, 3.0 mM): 72.3%; Mean (% inhibition) of superoxide anion signal ([1]; Water, 5.0 mM, listed as disodium diphosphate derivative of natural source lutein, sodium salt): more than 90%; Mean (% inhibition) of superoxide anion signal ([1]; Water, 5.0 mM, sodium salt): 91.0%
CC1=CC(O)CC(C)(C)C1/C=C/C(C)=C/C=C/C(C)=C/C=C/C=C(C)/C=C/C=C(C)/C=C/C1=C(C)CC(O)CC1(C)C (stereo not drawn) [Lutein, β,ε-carotene-3,3′-diol] | +15.6%^a | 252 ± 11 | +0.9%^a | 220 ± 8 | +13.5%^a | 649 ± 73 | +17.7%^a | 673 ± 69 | 
CC(C)=CCC/C(C)=C/C=C/C(C)=C/C=C/C(C)=C/C=C/C=C(C)/C=C/C=C(C)/C=C/C=C(\C)CCC=C(C)C [Lycopene] | +9.6%^a | 239 ± 2 | +85.8%^a | 405 ± 32 | +13.1%^a | 647 ± 61 | +119.1%^a | 1253 ± 55 | antioxidant/prooxidant activity [3]: highest prooxidant activity
CC1=C(/C=C/C(C)=C/C=C/C(C)=C/C=C/C=C(C)/C=C/C=C(C)/C=C/C2=C(C)C[C@@H](O)CC2(C)C)C(C)(C)C[C@H](O)C1 [Zeaxanthin] | +10.6%^a | 241 ± 12 | −0.5%^a | 217 ± 7 | +5.8%^a | 605 ± 26 | +20.6%^a | 690 ± 24 | 
Cc1ccc(-c2cc(C(F)(F)F)nn2-c2ccc(S(N)(=O)=O)cc2)cc1 [celecoxib] |  |  |  |  |  |  |  |  | effect on peroxidation of arachidonic acid-enriched vesicles ([4]; even at higher concentrations (data not shown)): no significant effect; ORAC value (AUC) [5]: 28.5±0.1; maximum plasma concentration (Cmax) ([6]; approved 200 mg dose): 705 ng/mL; volume of distribution ([6]; in vivo): 400 L; Cmax ([6]; read-out: maximum plasma concentration (Cmax), approved 200 mg dose): 1850 nM
CS(C)(=O)=O [dimethyl sulfone] |  |  |  |  |  |  |  |  | MDA level in LDL samples (human LDL): 3.32 ± 0.19 µM
Cc1ccc(-c2ncc(Cl)cc2-c2ccc(S(C)(=O)=O)cc2)cn1 [etoricoxib] |  |  |  |  |  |  |  |  | Levels of isoprostanes ([4]; 100 nM, vehicle 140±25 ng/100 μl, mean ± S.D.): 224±22 ng/100 μl; effect on MDA levels (TBARS) in human LDL (human LDL): marked increases
CS(=O)(=O)c1ccccc1 [methyl phenyl sulfone] |  |  |  |  |  |  |  |  | MDA level in LDL samples (human LDL): 3.25 ± 0.13 µM
CC1=C(/C=C/C(C)=C/C=C/C(C)=C/C=C/C=C(C)/C=C/C=C(C)/C=C/C2=C(C)CCCC2(C)C)C(C)(C)CCC1 [β-Carotene] | +24.8%^a | 272 ± 10 | +69.3%^a | 369 ± 17 | +40.4%^a | 803 ± 99 | +86.7%^a | 1068 ± 82 | antioxidant/prooxidant activity [3]: prooxidant activity
